# How the values were obtained:
# [1] = system: DU145; experiment: Cell cycle analysis (PI, flow cytometry), DU145; assay type: cell-based; settings: vs vehicle
# Description: The effect of RP-010 on the cell cycle phases and function was determined using cell cycle analysis with PI staining, followed by flow cytometry. The cells were incubated with either vehicle or RP-010 (0.5, 1 or 2 µM) for 24 h. After incubation overnight, the cells were collected, washed and resuspended as an ice-cold PBS suspension. The DNA was stained with PI for at least 15 min on ice. A FACS Calibur flow cytometer from BD Biosciences (San Jose, CA, USA) was used to determine the distribution of the cells following incubation with vehicle or RP-010. Finally, the data were viewed and analysed using FlowJo v10.2 software from FlowJo LLC (Ashland, OR, USA).
# [2] = system: Wnt/β-catenin signaling pathway proteins in DU145 cells; experiment: Western analysis of Wnt/β-catenin signaling pathway proteins, DU145; assay type: cell-based
# Description: DU145 cells were incubated with RP-010 ((1 or 2 µM) for 24 h. Thereafter, the cells were subjected to a two-step lysis process to extract and separate the cytosolic and the nuclear proteins, as previously described. Next, protein separation for both cytosolic and nuclear proteins was achieved by electrophoresing the samples through acrylamide SDS-PAGE gels, followed by transfer to a PVDF membrane. The PVDF membrane was then incubated overnight with the following primary antibodies: rabbit α-tubulin, 1:4000 dilution, rabbit BAX (1:1000), rabbit BAK (1:1000), rabbit cytochrome c (1:1000), rabbit PARP (1:5000), rabbit β-Catenin (1:4000), rabbit DVL3 (1:4000), rabbit LRP-6 (1:1000), rabbit P-LRP-6 (1:1000), rabbit c-Myc (1: 4000), rabbit cyclin B1 (1:2000), rabbit Wnt 5a (1:1000), rabbit naked 1 and naked 2 (1:1000), mouse E-cadherin (1:4000), mouse N-cadherin (1:4000), mouse β-actin (1:5000) and rabbit histone (1:3000). Finally, protein expression levels were determined as described previously. In the Figure 3, Figure 5 and Figure S8, the protein blots above β-actin were cytosolic lysates, while all the proteins below β-actin and above histones (loading controls) were nuclear lysates.
# [3] = DU145, 1 or 2 μM, 24 h, p < 0.01
compound,measurement,setting,value
COc1ccc(-c2nc3sc4c(c3c(=O)[nH]2)CCCC4)cc1 [RP10],"Cell cycle distribution, G1 phase","[1]; 0.5, 1 or 2 µM",significant shift from G1 phase
same,"Cell cycle distribution, G2 phase","[1]; 1 or 2 µM, p < 0.05",significantly accumulated in the G2 phase
same,Expression levels of N-cadherin,[2]; 1 and 2 µM,did not significantly alter
same,"Accumulation of lower molecular weight β-catenin fragments (P3, P4)","[2]; DU145, 1 or 2 μM, 24 h",increased the accumulation
same,Fragmentation of full-length β-catenin (p92) into lower molecular weight fragments (≈70 kDa),"[2]; DU145, 1 or 2 μM, 24 h",significant fragmentation
same,Levels of E-cadherin,"[2]; DU145, 1 or 2 μM, 24 h",did not significantly alter
same,Levels of Wnt 5a,"[2]; DU145, 1 or 2 μM, 24 h",no significant change
same,Levels of nuclear c-Myc,"[2]; DU145, 1 or 2 μM, 24 h",significantly decreased
same,Levels of total active β-catenin,"[2]; DU145, 1 or 2 μM, 24 h",significant decrease
same,Nuclear levels of Naked 1,"[2]; DU145, 1 or 2 μM, 24 h",significantly increased
same,Nuclear levels of Naked 2,"[2]; DU145, 1 or 2 μM, 24 h",significantly increased
same,Nuclear levels of cyclin B1,"[2]; DU145, 1 or 2 μM, 24 h",not significantly altered
same,Levels of cytosolic Naked 1,"[2]; DU145, 1 or 2 μM, 24 h, p < 0.001",significantly decreased
same,Cytosolic levels of cyclin B1,[2]; [3],decreased significantly
same,Levels of DVL3,[2]; [3],significantly decreased
same,Levels of cytosolic Naked 2,[2]; [3],significantly decreased
same,Levels of phosphorylated LRP-6 (P-LRP-6),[2]; [3],significantly decreased
same,Levels of LRP-6,"[2]; DU145, 1 or 2 μM, 24 h, p < 0.05",significantly decreased
